How the values were obtained:
PTEN-negative tumors [1] = details: specific inhibition of PI3Kβ; cited from earlier work
[2] = test system: pAKT (T308) in MCF-7 cells (PI3Kα E545K); assay: pAKT (T308) ELISA Assay; assay type: cell-based; details: Homo sapiens, MCF7; IGF1 stimulation; read-out: pAKT (T308) IC50 MCF-7 PI3Kα E545K IGF1
Protocol: MCF-7 cells (ATCC) cells were seeded at 24000 cells per well in 96-well plates (Corning, 3904) in DMEM (Cellgro) containing 10% FBS (Cellgro), 1% NEAA (Cellgro) and 1% penicillin-streptomycin (Cellgro). Cells were incubated at 37° C., 5% CO2 for 48 h, and the growth medium was replaced with serum-free DMEM or in medium containing 0.4% BSA. Serial dilutions of the test Compound in 0.3% DMSO (vehicle) were added to the cells and incubated for 3 h. At the end of the incubation period, cells were stimulated for 10 minutes by the addition of L-IGF (Sigma, I-1271) at a final concentration of 100 ng/ml. Afterwards, media was discarded from cell plates and 110 μl/well of cold lysis buffer (see table below) were added. Cell plates were incubated on ice and then put on shaker in 4° C. cold room for 1 h. Two capture plates (Thermo Scientific, Reacti-bind plate, 15042) were prepared for each cell plate by pre-coating with capture Akt antibody from the two sandwich ELISA antibody pairs used (Cell Signaling Technology 7142 and 7144). The Akt capture antibodies were diluted 1:100 in PBS and 100 μl of diluted capture antibody was added per well. Capture plates were incubated at 4 C overnight. Prior to use, capture plates were washed 3 times in TBS containing 0.1% Tween20 (Bio-Rad, 170-6351) (TBST) and blocked in blocking buffer (Thermo Scientific, Starting Block T20, 37543) for 1-2 h at room temperature. After 1 h of cell lysis, 85 μl of cell lysate/well was transferred to the capture plate for detection of pAkt(T308). 15 μl of cell lysate was transferred from same well to the second capture plate for detection of total Akt1. After incubation overnight at 4° C., plates were washed 3 times with 200 μL TBST. Primary antibodies, diluted 1:100 in blocking buffer, were added to the corresponding capture plates for pAkt(T308) (Cell Signaling Technology, 7144) and total Akt1 (Cell Signaling Technology, 7142) detection and incubated at room temperature for 1 h. Plates were washed 3 times with 200 μL of TBST. Goat anti-mouse secondary antibody (Cell Signaling Technology, 7076) conjugated to HRP was diluted 1:1000 in blocking buffer and 100 μl were added to each well and incubated for 30 minutes at room temperature. Plates were then washed 3 times with 200 μL of TBST. 100 μL of SuperSignal ELISA Femto stable peroxidase solution (Thermo Scientific, 37075) was added to each well. After 1 minute incubation, chemiluminescence was read on a Wallac Victor2 1420 multilabel counter. IC50 values were determined based on the ratio of pAkt(T308) to total Akt1 signal for Compound treated wells, normalized to the DMSO-treated control wells.
In another embodiment, the pAKT ELISA Assay was performed by seeding cells onto 96-well plates (Corning, 3904) in their respective growth media at the densities listed in Table 5. Cells were incubated at 37° C., 5% CO2 for 48 h (except MDA-MB-453 cells which were cultured in the absence of CO2). Compounds were serially diluted in DMSO and subsequently diluted in serum-free DMEM. Test compounds were added to cells in serum-free DMEM at a final concentration of 0.3% DMSO and incubated for 3 h. Cells were lysed with 130 μL of ice-cold RIPA lysis buffer (50 mM Tris-HCl, pH 7.5; 0.5% sodium deoxycholic acid; 1% Triton X-100; 0.1% SDS; 150 mM NaCl) with protease and phosphatase inhibitors (1 mM EDTA, 1 mM NaF, 20 mM β-glycerophosphate, 1 mM Na-orthovanadate, Complete-Mini EDTA-free, Roche, 11836170001, and Phosphatase Inhibitor Cocktail I, Sigma, P2850), directly in 96-well plates. Cells were lysed on ice for 60-120 min at 4° C. The supernatants were added directly to capture ELISA plates previously pre-coated with rabbit anti-AKT capture antibody. ELISA assays for pAKT(T308) and total AKT were performed with the pAKT(T308) ELISA kit (Cell Signaling Technology, 7144) and AKT1 ELISA kit (Cell Signaling Technology, 7142). For the pAKT(T308) ELISA, 85 μL of cell lysate was added to each well. […]

PTEN-negative tumors [3] = details: specific inhibition of PI3Kβ; cited from earlier work; remark: listed apart in the source

IC50 [2]: 1760 nM
Structure (SMILES): Cc1cc(C(C)Nc2ccccc2)c2nc(N3CCOCC3)cc(=O)n2c1 (stereo not drawn) [TGX-221, 7-methyl-2-(4-morpholinyl)-9-[1-(phenylamino)ethyl]-4H-pyrido[1,2-a]pyrimidin-4-one]
cell growth (PTEN-negative tumors [1]): blocks | basal AKT phosphorylation (PTEN-negative tumors [3]): blocks
